Source: patent US5376684A, “Aminoalkanephosphinic acids and salts thereof” (Ciba-Geigy Corporation, priority 1991, dated 1994)

Legend:
[1] = system: epileptic Wistar rats; conditions: cited from earlier work
[2] = system: pyramidal cells; assay: Penicillin-induced "epileptic" hippocampus section preparation; type: cell-based; conditions: concentration of 6 μM
Description: The novel GABAB -antagonists according to the invention interact at the GABAB -receptor with IC50 values of approximately 10^-8 M (mol/l) and above in the corticocerebral membranes of rats. […] The antagonism towards baclofen can also be shown in vitro in electrophysiological models, for example in the penicillin-induced "epileptic" hippocampus section preparation in which baclofen in a concentration of 6 μM (micromol/liter) inhibits "epilepsy-like" discharges from pyramidal cells. The compounds according to the invention act as antagonists of baclofen action in concentrations of about 10 to about 100 μM (micromol/liter). In vivo the antagonism can be shown by ionto-phoresis of baclofen in rat cerebral cortex and by systemic use of antagonists in doses of from 10 to 100 mg/kg. In doses of about 30 mg/kg, antagonism occurs towards the muscle-relaxant action of baclofen, which is measured in the Rotarod model.

Structure (SMILES)	doses that reduce the spike and wave discharges in dependence upon dosage [1] [mg/kg]	further results
CCC1(C)CC(=O)NC1=O (centres unmarked) [ethosuximide]	≥ 25	–
O=C1NC(=O)C(c2ccccc2)(c2ccccc2)N1 [phenytoin]	–	effect on spike and wave discharges / attacks [1]: ineffective or worsen the attacks at higher doses
CN1C(=O)CN=C(c2ccccc2)c2cc(Cl)ccc21 [diazepam]	≥ 0.5	–
NCC(CC(=O)O)c1ccc(Cl)cc1 (centres unmarked) [baclofen]	–	effect on "epilepsy-like" discharges from pyramidal cells [2]: inhibits
CCCC(CCC)C(=O)[O-].[Na+] [sodium valproate]	≥ 50	–
CN1C(=O)OC(C)(C)C1=O [trimethadione]	≥ 50	–
NC(=O)N1c2ccccc2C=Cc2ccccc21 [Carbamazepine]	–	effect on spike and wave discharges / attacks [1]: ineffective or worsen the attacks at higher doses
CCC1(c2ccccc2)C(=O)NC(=O)NC1=O [Phenobarbitone]	–	effect at 20 mg/kg ([1]; 20 mg/kg): ineffective
